Among the data in BindingDB's records for doi:10.3109/14756366.2010.491795 (Dumlupinar University, 2011) are IC50 and Ki values, retold here.

The term IC50 denotes the concentration needed to halve the response being measured. A low value points to greater potency. One may read the Ki as the equilibrium dissociation constant of an inhibitor or competing ligand from its target. Low values mean tighter binding, high ones weaker binding.

The target of assay [1] is T1, Carbonic anhydrase 1 (Homo sapiens, UniProt P00915). Put plainly: Hydratase Activity Assay.
In assay [2] the target is T2, Carbonic anhydrase 2 (Homo sapiens, UniProt P00918). Put plainly: Hydratase Activity Assay.
For assay [3], the target named is T1, Carbonic anhydrase 1. Put plainly: Esterase Activity Assay. Conditions: pH 7.4. As to the method: (§1) The enzymatic reaction, in a total volume of 3 mL, contained 1.4 mL of 0.05 M tris-SO4 buffer (pH 7.4), 1 mL of 3 mM 4-nitrophenylacetate, 0.5 mL H2O and 0.1 mL enzyme solution. A reference measurement was obtained by preparing the same cuvette without any enzyme solution.

Assay [4] addresses T2, Carbonic anhydrase 2. Put plainly: Esterase Activity Assay. Conditions: pH 7.4. As to the method:
as §1

For assay [5], the target named is T1, Carbonic anhydrase 1. Put plainly: Enzyme Activity Assay.
In assay [6] the target is T2, Carbonic anhydrase 2. Put plainly: Enzyme Activity Assay.

T1 sequence (P00915 whole entry): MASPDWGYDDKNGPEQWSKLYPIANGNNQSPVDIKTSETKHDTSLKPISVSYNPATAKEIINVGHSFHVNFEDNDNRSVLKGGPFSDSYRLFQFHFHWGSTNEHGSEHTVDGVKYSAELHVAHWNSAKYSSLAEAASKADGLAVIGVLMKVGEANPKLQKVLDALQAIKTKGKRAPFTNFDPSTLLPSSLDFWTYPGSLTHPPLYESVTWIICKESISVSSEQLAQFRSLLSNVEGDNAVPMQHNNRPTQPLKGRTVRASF

In the case of `CC(=O)/C(=N\Nc1ccc(-n2nc(C(=O)Nc3nnc(S(N)(=O)=O)s3)c(C(=O)c3ccccc3)c2-c2ccccc2)cc1)C(=O)OC(C)(C)C` [tert-Butyl 2-(2-(4-(4-benzoyl-5-phenyl-3-(5-sulphamoyl-1,3,4-thiadiazol-2-ylcarbamoyl)-1H-pyrazol-1-yl)phenyl)hydrazono)-3-oxobutanoate (17)], the IC50 is 780 nM in assay [1], 200 nM in assay [2], 330 nM in assay [3] and 80 nM in assay [4]. The results for the Ki in assay [5] and in assay [6] were 310 nM and 108 nM, respectively.
`CC(=O)Cn1c(C)cc2cc(-n3nc(C(=O)Nc4nnc(S(N)(=O)=O)s4)c(C(=O)c4ccccc4)c3-c3ccccc3)ccc21` [4-Benzoyl-1-(2-methyl-1-(2-oxopropyl)-1H-indol-5-yl)-5-phenyl-N-(5-sulphamoyl-1,3,4-thiadiazol-2-yl)-1H-pyrazole-3-carboxamide (18)]: the IC50 in assay [1] was 750 nM; in assay [2] it was 600 nM; in assay [3], 2400 nM; in assay [4], 1740 nM. Further, the Ki in assay [5] was determined as 6670 nM; in assay [6], 3920 nM.
`NS(=O)(=O)c1nnc(NC(=O)c2nn(-c3ccc(NN=C(C(=O)c4ccccc4)C(=O)c4ccccc4)cc3)c(-c3ccccc3)c2C(=O)c2ccccc2)s1` [4-Benzoyl-1-(4-(2-(1,3-dioxo-1,3-diphenylpropan-2-ylidene)hydrazinyl)phenyl)-5-phenyl-N-(5-sulphamoyl-1,3,4-thiadiazol-2-yl)-1H-pyrazole-3-carboxamide (13)]: the half-inhibitory concentration (IC50) turned out to be 700 nM in assay [1], 1000 nM in assay [2], 4800 nM in assay [3] and 1420 nM in assay [4]. Besides, the Ki in assay [5] turned out to be 1020 nM; in assay [6], 3180 nM.
On to `CCOC(=O)/C(=N/Nc1ccc(-n2nc(C(=O)Nc3nnc(S(N)(=O)=O)s3)c(C(=O)c3ccccc3)c2-c2ccccc2)cc1)C(=O)c1ccccc1` [Ethyl 2-(2-(4-(4-benzoyl-5-phenyl-3-(5-sulphamoyl-1,3,4-thiadiazol-2-ylcarbamoyl)-1H-pyrazol-1-yl)phenyl)hydrazono)-3-oxo-3-phenylpropanoate (14)], for which the IC50 in assay [1] is 1320 nM; in assay [2] it was 1300 nM; in assay [3], 800 nM; in assay [4], 850 nM. For the same compound, the Ki was 1530 nM in assay [5] and 498 nM in assay [6].
On to `NS(=O)(=O)c1nnc(NC(=O)c2nn(-c3ccc(I)cc3)c(-c3ccccc3)c2C(=O)c2ccccc2)s1` [4-Benzoyl-1-(4-iodophenyl)-5-phenyl-N-(5-sulphamoyl-1,3,4-thiadiazol-2-yl)-1H-pyrazole-3-carboxamide (10)], for which the concentration for half-maximal inhibition (IC50) in assay [1] was determined as 270 nM; in assay [2], 180 nM; in assay [3] it was 350 nM; in assay [4] it was 50 nM. Besides, the Ki in assay [5] was 360 nM; in assay [6] it was 56 nM.
For the compound `CCOC(=O)C(=NNc1ccc(-n2nc(C(=O)Nc3nnc(S(N)(=O)=O)s3)c(C(=O)c3ccccc3)c2-c2ccccc2)cc1)C(=O)OCC` [Diethyl 2-(2-(4-(4-benzoyl-5-phenyl-3-(5-sulphamoyl-1,3,4-thiadiazol-2-ylcarbamoyl)-1H-pyrazol-1-yl)phenyl)hydrazono)malonate (16)], the IC50 in assay [1] is 850 nM; in assay [2], 1000 nM; in assay [3], 380 nM; in assay [4] it was 70 nM. The Ki worked out at 300 nM in assay [5] and 65 nM in assay [6].
For the compound `NS(=O)(=O)c1nnc(NC(=O)c2nn(-c3ccc(/N=N/c4c(O)ccc5ccccc45)cc3)c(-c3ccccc3)c2C(=O)c2ccccc2)s1` [4-Benzoyl-1-(4-((2-hydroxynaphthalen-1-yl)diazenyl)phenyl)-5-phenyl-N-(5-sulphamoyl-1,3,4-thiadiazol-2-yl)-1H-pyrazole-3-carboxamide (8)], the IC50 in assay [1] worked out at 2860 nM; in assay [2], 2400 nM; in assay [3], 4750 nM; in assay [4], 2100 nM. The figures for the inhibition constant Ki in assay [5] and in assay [6] were 5830 nM and 848 nM, respectively.
On to `CC(=O)/C(=N\Nc1ccc(-n2nc(C(=O)Nc3nnc(S(N)(=O)=O)s3)c(C(=O)c3ccccc3)c2-c2ccccc2)cc1)C(=O)c1ccccc1` [4-Benzoyl-1-(4-(2-(1,3-dioxo-1-phenylbutan-2-ylidene)hydrazinyl)phenyl)-5-phenyl-N-(5-sulphamoyl-1,3,4-thiadiazol-2-yl)-1H-pyrazole-3-carboxamide (12)], for which the IC50 is 164 nM in assay [1], 160 nM in assay [2], 1000 nM in assay [3] and 370 nM in assay [4]. The Ki in assay [5] came to 1530 nM; in assay [6], 244 nM.
On to `CC(=O)C(=NNc1ccc(-n2nc(C(=O)Nc3nnc(S(N)(=O)=O)s3)c(C(=O)c3ccccc3)c2-c2ccccc2)cc1)C(C)=O` [4-Benzoyl-1-(4-(2-(2,4-dioxopentan-3-ylidene)hydrazinyl)phenyl)-5-phenyl-N-(5-sulphamoyl-1,3,4-thiadiazol-2-yl)-1H-pyrazole-3-carboxamide (11)], for which the IC50 was determined as 330 nM in assay [1], 80 nM in assay [2], 570 nM in assay [3] and 130 nM in assay [4]. Further, the Ki in assay [5] turned out to be 572 nM; in assay [6], 103 nM.
Take `NS(=O)(=O)c1nnc(NC(=O)c2nn(-c3ccc(/N=N/c4ccc(O)cc4)cc3)c(-c3ccccc3)c2C(=O)c2ccccc2)s1` [4-Benzoyl-1-(4-((4-hydroxyphenyl)diazenyl)phenyl)-5-phenyl-N-(5-sulphamoyl-1,3,4-thiadiazol-2-yl)-1H-pyrazole-3-carboxamide (9)]: the IC50 in assay [1] was found to be 200 nM; in assay [2] it was 800 nM; in assay [3], 230 nM; in assay [4] it was 30 nM. The results for the Ki in assay [5] and in assay [6] were 95 nM and 18 nM, respectively.
On to `CCOC(=O)/C(=N/Nc1ccc(-n2nc(C(=O)Nc3nnc(S(N)(=O)=O)s3)c(C(=O)c3ccccc3)c2-c2ccccc2)cc1)C(C)=O` [Ethyl 2-(2-(4-(4-benzoyl-5-phenyl-3-(5-sulphamoyl-1,3,4-thiadiazol-2-ylcarbamoyl)-1H-pyrazol-1-yl)phenyl)hydrazono)-3-oxobutanoate (15)], for which the IC50 came to 1210 nM in assay [1], 800 nM in assay [2], 910 nM in assay [3] and 140 nM in assay [4]. Also, the Ki in assay [5] came to 1190 nM; in assay [6] it was 125 nM.
